Measured values from patent US10300130B2, “Cytomegalovirus vaccines and methods of production” (The Trustees of Princeton University, priority 2007, dated 2019).

How the values were obtained:
BFXwt = assay: Dependence of infection on endosome acidification (IE1-positive ARPE-19 cells), BFXwt; assay type: cell-based, HCMV; details: 50 mM NH4Cl or 40 nM BFA, 0.01 pfu/cell
Method: (§1) FIGS. 3A-3B. Effects of inhibitors of endosome acidification and virion source on HCMV entry into ARPE-19 cells. Experiments were performed in triplicate, and the number of positive cells in drug-treated relative to untreated cultures is reported. FIG. 3A: Cells were pretreated with NH4Cl or BFA for 1 h, inoculated with epiBADrUL131 or fibroBADrUL131 (1 pfu/cell) and stained for IE 1 16 h later. FIG. 3B: Cells were pretreated with 50 mM NH4Cl or 40 nM BFA for 1 h, and then inoculated with BADrUL131 (0.1 pfu/cell) or FIXwt (0.01 pfu/cell) produced in the indicated cell types and stained for IE1 16 h later.
(§2) ARPE-19 cells were pretreated with NH4Cl or Bafilomycin A1 (BFA) (Sigma) for 1 h at 37° C., followed by infection in the continued presence of the inhibitor. 16 h later, cultures were fixed in 2% paraformaldehyde and permeabilized with 0.1% Triton X-100. IE1 was identified by immunofluorescence using monoclonal antibody IB12 (21) plus Alexa 546-conjugated secondary antibody and nuclei were stained with DAPI. Inhibition was calculated as the percentage of IE1-expressing drug-treated relative to untreated cells.
The effect of endosomal pH on entry of the BFXwt clinical isolate into ARPE-19 cells was also assayed (FIG. 3B. right panel).

BADrUL131 = assay: Dependence of infection on endosome acidification (IE1-positive ARPE-19 cells), BADrUL131; assay type: cell-based, HCMV; details: 1 h pretreatment, 1 pfu/cell, IE1 16 h later
Method: as §1, §2
Many viruses that enter cells by endocytosis (1, 4, 10) require acidification of endosomes for the virion envelope to fuse with the endosomal membrane and release the capsid into the cytoplasm. NH4Cl. which buffers endosomal pH, and bafilomycin A1 (BFA), which blocks the endosomal ATPase proton pump, were tested for their effect on infection of ARPE-19 cells. After pretreatment with either agent, cells were infected and cultured in drug containing medium for a further 16 h. Successful infections were scored by assaying for IE1-positive cells.

Cl.N [NH4Cl]
effect on number of IE1-positive ARPE-19 cells, epithelial cell-derived BFXwt (BFXwt): only a slight inhibition | effect on number of IE1-positive ARPE-19 cells, fibroblast-generated BFXwt (BFXwt): significantly reduced | effect of pretreatment on epiBADrUL131 infection (IE1-positive cells) (BADrUL131): only a modest effect | effect of pretreatment on fibroBADrUL131 infection (IE1 expression) (BADrUL131): inhibited IE1 expression

CO/C1=C\C(C)=C\[C@@H](C)[C@@H](O)[C@@H](C)C/C(C)=C/C=C/[C@H](OC)[C@@H]([C@@H](C)[C@@H](O)[C@H](C)[C@@]2(O)C[C@@H](O)[C@H](C)[C@@H](C(C)C)O2)OC1=O [BFA, Bafilomycin A1]
effect on number of IE1-positive ARPE-19 cells, epithelial cell-derived BFXwt (BFXwt): only a slight inhibition | effect on number of IE1-positive ARPE-19 cells, fibroblast-generated BFXwt (BFXwt): significantly reduced | effect of pretreatment on epiBADrUL131 infection (IE1-positive cells) (BADrUL131): only a modest effect | effect of pretreatment on fibroBADrUL131 infection (IE1 expression) (BADrUL131): inhibited IE1 expression
